Format in all cases: biochemical
Test [1] concerns the target T1, human recombinant ROCK II (Homo sapiens, UniProt O75116).
T1 construct: N-terminal His6-tagged recombinant human ROCK-II residues 11-552; His6 (N); purchased Millipore GmbH, Schwalbach, Germany
As to the kind of experiment: Determination of Rho kinase inhibition (Caliper peptide phosphorylation assay). As to conditions: 60 min at 32° C., negative decadal logarithm of the IC50. The procedure:
Determination of Rho Kinase Inhibition
To measure Rho-kinase inhibition, IC50 values were determined according to the following protocol:
Active human recombinant ROCK II (N-terminal His6-tagged recombinant human ROCK-II residues 11-552) was purchased from Millipore GmbH, Schwalbach, Germany. The peptide substrate, Fluorescein-[…]-COOH, was obtained from JPT Peptide Technologies, Berlin, Germany. Adenosine-5′-triphosphate (ATP), bovine serum albumine (BSA), dimethylsulphoxide (DMSO), 4-(2-Hydroxyethyl)piperazine-1-ethanesulfonic acid (Hepes), Brij-35, dithiothreitol (DTT) and Pluronic F-68 were purchased from Sigma-Aldrich, Munich, Germany. Tris(hydroxymethyl)-aminomethane (Tris), magnesium chloride, NaOH, 1M HCl and EDTA were obtained from Merck Biosciences, Darmstadt, Germany. “Complete” protease inhibitor was from Roche Diagnostics, Mannheim, Germany.
(§1) Test compounds were diluted to the appropriate concentrations in buffer 1 (25 mM Tris-HCl, pH 7.4, 5 mM MgCl2, 2 mM DTT, 0.02% (w/v) BSA, 0.01% Pluronic F-68 and 3% DMSO). The ROCK II enzyme was diluted to a concentration of 100 ng/mL in buffer 2 (25 mM Tris-HCl, pH 7.4, 5 mM MgCl2, 2 mM DTT and 0.02% (w/v) BSA). The peptide substrate and ATP were diluted to concentrations of 3 μM and 120 μM, respectively, in the buffer 2. Two μl of the compound solution were mixed with 2 μl of the diluted enzyme in a 384-well small volume microtiter plate (Greiner, Bio-One, Frickenhausen, Germany), and the kinase reaction was initiated by addition of 2 μl of the solution containing peptide substrate and ATP. After 60 min incubation at 32° C., the reaction was stopped by addition of 20 μl of a solution containing 100 mM Hepes-NaOH, pH 7.4, 0.015% (v/v) Brij-35, 45 mM EDTA and 0.227% chip coating reagent 1 (Caliper Lifescience Inc, Hopkinton, Mass.). Phosphorylation of the substrate peptide was then detected on a Caliper 3000 instrument essentially as described by Pommereau et al (J. Biomol. Screening 9(5), 409-416, 2004). Separation conditions were as follows: Pressure −1.3 psi, upstream voltage −1562 V, downstream voltage −500 V, sample sip time 200 ms. Positive controls (buffer 1 instead of compound) and negative controls (buffer 1 instead of compound and buffer 2 instead of ROCK II) were run in parallel on each plate.
The following products/compounds were tested in said assay by using the respective form (salt or free base) obtained as in the examples described above and the following activities were measured

The target of test [2] is T2, recombinant human PKG1-beta (Homo sapiens, UniProt Q13976).
T2 construct: Active recombinant human PKG1-beta (full-length, with N-terminal His-tag); His-tag (N); purchased Millipore GmbH, Schwalbach, Germany
T2 sequence (Q13976 1-686 isoform Q13976-2): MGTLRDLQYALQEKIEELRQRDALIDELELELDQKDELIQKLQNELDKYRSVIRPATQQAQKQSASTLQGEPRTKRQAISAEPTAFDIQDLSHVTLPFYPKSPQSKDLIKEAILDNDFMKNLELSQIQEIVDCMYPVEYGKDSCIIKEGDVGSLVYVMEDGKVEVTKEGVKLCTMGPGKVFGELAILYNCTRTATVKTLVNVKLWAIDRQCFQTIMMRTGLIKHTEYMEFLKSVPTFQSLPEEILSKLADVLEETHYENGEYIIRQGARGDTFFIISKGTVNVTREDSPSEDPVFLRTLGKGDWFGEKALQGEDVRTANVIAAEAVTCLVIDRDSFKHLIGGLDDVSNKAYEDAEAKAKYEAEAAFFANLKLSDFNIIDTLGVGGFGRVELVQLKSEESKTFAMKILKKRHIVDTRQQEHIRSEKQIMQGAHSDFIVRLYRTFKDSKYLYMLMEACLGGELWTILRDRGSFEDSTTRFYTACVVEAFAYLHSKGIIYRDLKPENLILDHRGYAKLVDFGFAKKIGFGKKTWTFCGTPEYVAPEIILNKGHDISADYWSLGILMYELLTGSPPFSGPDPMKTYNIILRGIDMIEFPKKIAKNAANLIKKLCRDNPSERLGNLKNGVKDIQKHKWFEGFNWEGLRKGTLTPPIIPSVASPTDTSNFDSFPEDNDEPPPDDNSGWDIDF
Description: Determination of Protein Kinase G inhibition (Caliper peptide phosphorylation assay). As to conditions: recombinant human PKG1-beta versus ROCK II. The procedure:
(§2) Determination of Protein Kinase A and Protein Kinase G Inhibition
(§3) To measure PKA and PKG1-beta inhibition, IC50 values were determined according to the following protocol:
(§4) Active recombinant human PKG1-beta (full-length, with N-terminal His-tag) was purchased from Millipore GmbH, Schwalbach, Germany. Active recombinant human PKA (residues 1-351, N-terminal His-tag) was obtained from Invitrogen, Karlsruhe, Germany. The peptide substrate, Fluorescein-[…]-COOH, was obtained from JPT Peptide Technologies, Berlin, Germany. Adenosine-5′-triphosphate (ATP), bovine serum albumine (BSA), dimethylsulphoxide (DMSO), 4-(2-Hydroxyethyl)piperazine-1-ethanesulfonic acid (Hepes), Brij-35, dithiothreitol (DTT) and Pluronic F-68 were purchased from Sigma-Aldrich, Munich, Germany. Tris(hydroxymethyl)-aminomethane (Tris), magnesium chloride, NaOH, 1M HCl and EDTA were obtained from Merck Biosciences, Darmstadt, Germany. “Complete” protease inhibitor was from Roche Diagnostics, Mannheim, Germany.
as §1, with “PKG1-beta and PKA were” for “The ROCK II enzyme was”, “concentrations” for “a concentration”, “150 ng/ml and 30 ng/ml, respectively,” for “100 ng/mL”, “2.” for “2 (25 mM Tris-HCl, pH 7.4, 5 mM MgCl2, 2 mM DTT and 0.02% (w/v) BSA).”, “kinase solution)” for “ROCK II)”, “plate. The following products/compounds were tested in said assay by using the respective form (salt or free base) obtained as in the examples described above and the following activities were measured.” for “plate.”

Test [3] addresses T3, recombinant human PKA (Homo sapiens, UniProt P17612).
T3 construct: Active recombinant human PKA (residues 1-351, N-terminal His-tag); His-tag (N); purchased Invitrogen, Karlsruhe, Germany
As to the kind of experiment: Determination of Protein Kinase A inhibition (Caliper peptide phosphorylation assay). As to conditions: recombinant human PKA versus ROCK II. The procedure: as §2, §3, §4
as §1, with “PKG1-beta and PKA were” for “The ROCK II enzyme was”, “concentrations” for “a concentration”, “150 ng/ml and 30 ng/ml, respectively,” for “100 ng/mL”, “2.” for “2 (25 mM Tris-HCl, pH 7.4, 5 mM MgCl2, 2 mM DTT and 0.02% (w/v) BSA).”, “kinase solution)” for “ROCK II)”, “plate. The following products/compounds were tested in said assay by using the respective form (salt or free base) obtained as in the examples described above and the following activities were measured.” for “plate.”

Structures are written as SMILES.

Data on 13 compounds can be found in US8541449B2, “Substituted isoquinolines and isoquinolinones as Rho kinase inhibitors” (Sanofi, priority 2008, dated 2013).

T1 sequence (O75116 11-552): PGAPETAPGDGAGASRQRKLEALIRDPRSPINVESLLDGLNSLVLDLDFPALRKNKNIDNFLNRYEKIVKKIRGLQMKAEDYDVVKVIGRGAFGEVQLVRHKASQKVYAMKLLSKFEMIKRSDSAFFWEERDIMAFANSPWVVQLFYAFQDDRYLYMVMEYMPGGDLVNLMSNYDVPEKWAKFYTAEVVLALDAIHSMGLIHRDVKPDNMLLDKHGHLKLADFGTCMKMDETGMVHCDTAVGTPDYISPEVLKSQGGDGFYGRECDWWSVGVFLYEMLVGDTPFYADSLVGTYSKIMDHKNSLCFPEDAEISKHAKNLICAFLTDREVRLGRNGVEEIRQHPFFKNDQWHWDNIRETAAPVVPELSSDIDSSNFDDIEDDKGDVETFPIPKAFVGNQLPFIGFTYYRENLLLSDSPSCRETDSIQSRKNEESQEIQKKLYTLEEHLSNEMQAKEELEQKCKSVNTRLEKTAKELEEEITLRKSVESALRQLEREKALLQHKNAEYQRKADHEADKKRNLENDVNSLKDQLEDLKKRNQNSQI

Consider `CCC(N)[C@]1(c2ccccc2C)CC[C@H](Oc2cc3cc[nH]c(=O)c3cc2Cl)CC1` (stereo partly drawn) [Example 60, cis-6-[4-(1-Amino-propyl)-4-o-tolyl-cyclohexyloxy]-7-chloro-2H-isoquinolin-1-one], for which the pIC50 entry in test [1] was “+++++++ (8.0≦pIC50)”. Further, in test [2], the “Selectivity against PKG” value is given as more than 100. In test [3], the “Selectivity against PKA” value is given as more than 1000.
The corresponding values for `CCC(N)[C@]1(c2ccc(F)c(OC)c2)CC[C@H](Oc2cc3cc[nH]c(=O)c3cc2Cl)CC1` (stereo partly drawn) [Example 62, cis-6-[4-(1-Amino-propyl)-4-(4-fluoro-3-methoxy-phenyl)-cyclohexyloxy]-7-chloro-2H-iso quinolin-1-one] are “+++++++ (8.0≦pIC50)”, more than 300 and more than 1000.
For `CCC(N)[C@]1(c2cccc(OC(F)(F)F)c2)CC[C@H](Oc2cc3cc[nH]c(=O)c3cc2C)CC1` (stereo partly drawn) [Example 85, cis-6-[4-(1-Amino-propyl)-4-(3-trifluoro-methoxy-phenyl)-cyclo-hexyloxy]-7-methyl-2H-iso quinolin-1-one], in that order: “+++++ (6.0≦pIC50<7.0)”, more than 10 and more than 100.
For `CCC(N)[C@]1(c2ccccc2F)CC[C@H](Oc2cc3cc[nH]c(=O)c3cc2Cl)CC1` (stereo partly drawn) [Example 9, cis-6-[4-(1-Amino-propyl)-4-(2-fluoro-phenyl)-cyclohexyloxy]-7-chloro-2H-isoquinolin-1-one], in that order: “+++++++ (8.0≦pIC50)”, more than 100 and more than 1000.
As to `CCC(N)[C@]1(c2cccc(OC)c2)CC[C@H](Oc2cc3cc[nH]c(=O)c3cc2Cl)CC1` (some centres unmarked) [Example 28], the pIC50 result in test [1] was “+++++++ (8.0≦pIC50)”. Also, in test [2], the “Selectivity against PKG” value is more than 1000. Further, the “Selectivity against PKA” value in test [3] is more than 1000.
Regarding `CC(N)[C@]1(c2ccccc2)CC[C@H](Oc2cc3cc[nH]c(=O)c3cc2Cl)CC1` (stereo partly drawn) [Example 24, cis-6-[4-(1-Amino-ethyl)-4-phenyl-cyclohexyloxy]-7-chloro-2H-iso quinolin-1-one], the pIC50 result in test [1] is recorded as “+++++++ (8.0≦pIC50)”. Besides, the “Selectivity against PKG” value in test [2] is given as more than 300. The “Selectivity against PKA” value in test [3] is listed as more than 1000.
`CCC(N)C1CCC(Oc2cc3cc[nH]c(=O)c3cc2Cl)CC1` (single isomer, unassigned) [Example 130, 6-[4-(1-Amino-propyl)-cyclohexyloxy]-7-chloro-2H-isoquinolin-1-one]: the pIC50 result in test [1] is reported as “++++++ (7.0≦pIC50<8.0)”. Besides, the “Selectivity against PKG” value in test [2] is listed as more than 10. Also, the “Selectivity against PKA” value in test [3] was more than 300.
The corresponding values for `CCC(N)[C@]1(c2ccccn2)CC[C@H](Oc2cc3cc[nH]c(=O)c3cc2Cl)CC1` (stereo partly drawn) [Example 55, cis-6-[4-(1-Amino-propyl)-4-pyridin-2-yl-cyclohexyloxy]-7-chloro-2H-isoquinolin-1-one] are “+++++++ (8.0≦pIC50)”, more than 300 and more than 1000.
The corresponding values for `CCC(N)[C@]1(c2ccc(F)c(F)c2)CC[C@H](Oc2cc3cc[nH]c(=O)c3cc2Cl)CC1` (stereo partly drawn) [Example 59, cis-6-[4-(1-Amino-propyl)-4-(3,4-difluoro-phenyl)-cyclohexyloxy]-7-chloro-2H-isoquinolin-1-one] are “+++++++ (8.0≦pIC50)”, more than 300 and more than 1000.
For `CCCC(N)[C@]1(c2ccc(F)cc2)CC[C@@H](Oc2cc3cc[nH]c(=O)c3cc2Cl)CC1` (stereo partly drawn) [Example 12, trans-6-[4-(1-Amino-butyl)-4-(4-fluoro-phenyl)-cyclohexyloxy]-7-chloro-2H-isoquinolin-1-one], in that order: “+++++ (6.0≦pIC50<7.0)”, more than 10 and more than 100.
Turning to `CC(C)(N)[C@]1(c2ccc(F)cc2)CC[C@H](Oc2cc3cc[nH]c(=O)c3cc2Cl)CC1` [Example 77, cis-6-[4-(1-Amino-1-methyl-ethyl)-4-(4-fluoro-phenyl)-cyclohexyloxy]-7-chloro-2H-isoquinolin-1-one], in test [1], the pIC50 entry was “+++++++ (8.0≦pIC50)”. For the same compound, the “Selectivity against PKG” value in test [2] is reported as more than 300. Moreover, in test [3], the “Selectivity against PKA” value is more than 1000.
With `NC(C1CCC(Oc2cc3cc[nH]c(=O)c3cc2Cl)CC1)C1CC1` (single isomer, unassigned) [Example 131, 6-[4-(Amino-cyclopropyl-methyl)-cyclohexyloxy]-7-chloro-2H-isoquinolin-1-one], the IC50 – broadly, the concentration at which inhibition is half-maximal – in test [1] was 100 to 1000 nM. Besides, in test [2], the “Selectivity against PKG” value is more than 10. The “Selectivity against PKA” value in test [3] is listed as more than 10.
On to `CC(N)(c1ccccc1)C1CCC(Oc2cc3cc[nH]c(=O)c3cc2Cl)CC1` (centres unmarked) [Example 34, 6-[4-(1-Amino-1-phenyl-ethyl)-cyclohexyloxy]-7-chloro-2H-isoquinolin-1-one], for which the “Selectivity against PKG” value in test [2] is given as more than 10. Also, the “Selectivity against PKA” value in test [3] is listed as more than 300.
